This note sets out measurements from US9820983B2, “Immediate release pharmaceutical compositions comprising oxycodone and naloxone” (Purdue Pharma L.P., priority 2009, dated 2017).

Data set [1] can be described thus: Single dose bioavailability study of IR OXN 20/10 vs oxycodone IR capsule 20 mg and OXN PR 20/10 (Targin) in healthy subjects (Example 3). The class given is in vivo, human. The settings on record: oral, from the study treatments.
Method: The study was an open-label, single-dose, 3-treatment, 3-period, randomised crossover. Each subject received single oral doses of IR OXN tablet 20/10 mg, oxycodone IR capsule 20 mg and OXN PR tablet 20/10 mg (Targin®). Subjects received each of the three treatments according to a random allocation schedule (RAS), with at least a 7-day washout period between each dosing.
Subjects attended a screening visit within 21 days of the first dosing day of Study Period 1. Eligible subjects then checked into the study unit on the day before dosing in each study period. Subjects were administered the appropriate study drug in a fasted state the following morning.
Pharmacokinetic blood samples were taken for 36 hours after administration of study drug in each study period, and subjects were discharged after the 36-hour blood sample.
IR OXN tablet 20/10 mg. The treatment was administered orally, in a fasted state, as follows: […]
Log-transformed data for the analytes oxycodone, noroxycodone, oxymorphone, noroxymorphone, naloxone, 6β-naloxol, naloxone-3-glucuronide and 6β-naloxol-3-glucuronide and the pharmacokinetic parameters AUCt, AUCINF and Cmax were analysed using a mixed effect linear model 18, with fixed terms for treatment and period and a random effect for subject.
Treatment ratios/differences and their associated 90% confidence intervals were calculated from the least square means.
Data set [2] is described as follows: Single dose study of dose proportionality of IR OXN tablets in healthy subjects (Example 2). It counts as in vivo, human. The settings on record: after IR OXN tablets, particularly with the lower doses.
From the text: The study was an open-label, single-dose, 4-treatment, 4-period, randomised crossover study in healthy male and female subjects conducted at a single study centre. […] Subjects received each of the four treatments according to a random allocation schedule (RAS), with at least a 7-day washout period between each dosing.
Subjects attended a screening visit within 21 days of the first dosing day of Study Period 1. Eligible subjects then checked into the study unit on the day before dosing in each study period. Subjects were administered the appropriate study drug in a fasted state the following morning. […]
The following pharmacokinetic parameters were calculated from the plasma concentrations of oxycodone, noroxycodone, oxymorphone, noroxymorphone, naloxone, 6β-naloxol, naloxone-3-glucuronide and 6β-naloxol-3-glucuronide: • Area under the plasma concentration-time curve measured from the time of dosing to the last measurable concentration (AUCt) • Area under the plasma concentration-time curve measured from the time of dosing and extrapolated to infinity (AUCinf) • Maximum observed plasma concentration (Cmax) • Time of maximum observed plasma concentration (tmax) • Terminal phase rate constant (LambdaZ) • Terminal phase half-life (t1/2Z) […]
AUCt values were calculated using the linear trapezoidal method. […]

Take `C=CCN1CC[C@]23c4c5ccc(O)c4O[C@H]2C(=O)CC[C@@]3(O)[C@H]1C5` [Naloxone, naloxone]: the bioavailability of naloxone result in data set [1] was “very low”. For the same compound, the “plasma concentrations of naloxone” value in data set [2] was “extremely low”.
